Measurements reported in PMC8471380 (Molecules, 2021).
Counter-ions that a name gives are not always drawn.

Tests used:
[1] = tested on: tubulin and microtubule-associated proteins (Tb+MAP); assay: GTP-dependent Tb+MAP polymerization; format: biochemical, mouse; details: 100 µM compound; for Rate of Tb+MAP Polymerization (dA355/dt): 0.1 mM GTP, 37 °C
From the text: A crude fraction of tubulin and microtubule-associated proteins (Tb+MAP) was isolated from mouse brain tissue by a polymerization–depolymerization method. The procedure of mouse euthanasia using cervical dislocation for Tb+MAP preparation is in compliance with the Guidelines for Animal Experiments, which were approved by the local bioethics committee of the IPAC RAS. The freshly dissected brain was immediately placed on ice, cleared of meninges and surface blood vessels, and washed with cold buffer A (50 mM Tris-HCl, pH 6.9 at 4 °C, 2 mM EGTA). The extracted brain tissue was homogenized under ice cooling in the same buffer using a Potter S homogenizer (Sartorius). The resulting homogenate was centrifuged at 10,000× g for 30 min on an Avanti 25 centrifuge (Beckman) using a JA-14 rotor for the precipitation of non-ruptured cells. The precipitate was discarded, and the supernatant was again centrifuged at 100,000× g for 60 min at 4 °C on an Optima MAX XP centrifuge (Beckman) using a MLA-50 rotor. The precipitate was again discarded. The protein concentration in the supernatant was determined by the Bradford assay using the Bio-Rad Protein Assay kit (Bio-Rad, Hercules, CA, USA) according to manufacturer’s instructions. The resulting supernatant was a cytosolic fraction enriched in microtubular proteins (Tb and MAP).
The Tb+MAP preparation was centrifuged at 5000× g for 10 min at 4 °C immediately before polymerization in order to remove denatured and aggregated protein molecules by precipitation. The Tb+MAP polymerization was performed at 37 °C in buffer A in the presence of 0.1 mM GTP after addition of 100 µM of test compound or the same volume of vehicle (DMSO). The protein concentration in the sample was 0.2 mg/mL. The polymerization kinetics was monitored on a Victor 3 or EnVision microplate reader (Perkin Elmer, USA) at 355 nm and the stabilized rate of polymerization after the first wave was measured (dA355/dt).

[2] = biological target: T1, ifenprodil-binding site of NMDA receptor (NR2B subunit) (Rattus norvegicus, UniProt P35439+Q00960); assay: Radioligand binding assay, [3H]ifenprodil displacement
T1 construct: from tissue; host or cells: rat hippocampus membranes
T1 sequence (Q00960 27-1482, other chains not shown): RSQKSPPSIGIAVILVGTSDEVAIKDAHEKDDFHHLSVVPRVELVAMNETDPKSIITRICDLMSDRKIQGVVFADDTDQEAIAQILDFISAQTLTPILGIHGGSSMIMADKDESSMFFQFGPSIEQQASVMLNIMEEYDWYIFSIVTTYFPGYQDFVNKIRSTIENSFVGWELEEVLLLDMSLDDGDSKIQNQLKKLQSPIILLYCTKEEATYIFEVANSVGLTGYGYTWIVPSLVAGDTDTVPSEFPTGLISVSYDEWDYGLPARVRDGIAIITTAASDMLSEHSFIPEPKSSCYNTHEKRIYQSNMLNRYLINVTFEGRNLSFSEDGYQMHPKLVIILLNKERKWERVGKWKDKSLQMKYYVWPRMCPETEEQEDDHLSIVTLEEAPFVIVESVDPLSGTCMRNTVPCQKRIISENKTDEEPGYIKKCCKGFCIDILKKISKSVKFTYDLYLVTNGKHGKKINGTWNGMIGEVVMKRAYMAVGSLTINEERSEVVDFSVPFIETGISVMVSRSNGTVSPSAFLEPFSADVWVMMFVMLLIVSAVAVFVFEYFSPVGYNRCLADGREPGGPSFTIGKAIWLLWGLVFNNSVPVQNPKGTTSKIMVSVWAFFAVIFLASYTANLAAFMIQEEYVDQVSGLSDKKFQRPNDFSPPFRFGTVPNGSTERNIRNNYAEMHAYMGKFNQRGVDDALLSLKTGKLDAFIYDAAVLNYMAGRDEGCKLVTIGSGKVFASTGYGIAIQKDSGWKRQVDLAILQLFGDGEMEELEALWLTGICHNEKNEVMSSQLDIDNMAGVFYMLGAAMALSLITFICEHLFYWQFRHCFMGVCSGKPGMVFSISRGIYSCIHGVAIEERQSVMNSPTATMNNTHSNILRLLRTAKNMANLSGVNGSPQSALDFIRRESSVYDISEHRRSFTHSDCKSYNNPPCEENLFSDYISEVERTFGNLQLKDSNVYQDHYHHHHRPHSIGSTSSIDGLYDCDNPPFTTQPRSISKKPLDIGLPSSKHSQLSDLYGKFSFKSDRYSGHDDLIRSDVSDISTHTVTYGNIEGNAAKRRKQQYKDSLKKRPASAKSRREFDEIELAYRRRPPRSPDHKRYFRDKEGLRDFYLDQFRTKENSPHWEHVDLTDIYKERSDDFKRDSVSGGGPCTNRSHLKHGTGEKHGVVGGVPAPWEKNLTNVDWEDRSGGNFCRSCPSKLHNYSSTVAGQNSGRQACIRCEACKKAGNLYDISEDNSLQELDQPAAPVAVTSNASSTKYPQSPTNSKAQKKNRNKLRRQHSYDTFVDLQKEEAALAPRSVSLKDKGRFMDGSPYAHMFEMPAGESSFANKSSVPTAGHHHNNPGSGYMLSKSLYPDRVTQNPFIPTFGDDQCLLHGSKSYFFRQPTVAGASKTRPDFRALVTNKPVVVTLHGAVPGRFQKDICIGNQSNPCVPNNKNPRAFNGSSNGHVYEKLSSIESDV
Method: (§1) The effect of the test compounds on radioligand binding to NMDA receptors was evaluated by a modified method, as previously reported [83]. The following two radioligands were used: [^3H] […] A hippocampal membrane preparation for the radioligand binding assay was made as described previously [86, 87]. The obtained membrane pellet was resuspended in a working buffer (5 mM HEPES/4.5 mM Tris, pH 7.6 at 4 °C) in a ratio of 1:5 and stored in liquid nitrogen. The reaction mixture (the final volume was 0.5 mL) contained the working buffer (200 μL), a 50 nM radioligand solution (50 μL) and the membrane suspension (250 μL). The nonspecific binding was evaluated in the presence of 1 mM of the unlabeled ligand (50 μL).
(§2) For the binding assay, the reaction mixture was incubated at room temperature for 2 h. After the incubation, the samples were filtered through GF/B glass fiber filters (Whatman), washed with the working buffer, dried and transferred to scintillation vials. Then the scintillation fluid (5 mL), which is composed of diphenyloxazole (PPO) (4 g) and bis(5-phenyl-2-oxazolyl)benzene (POPOP) (0.2 g) in toluene (1 L) were added to the vials.
(§3) The effect of the test compounds on the binding of [^3H] […] The values of Ki were calculated according to a previously described method [88].

[3] = biological target: T2, MK-801-binding (intrachannel) site of NMDA receptor (Rattus norvegicus, UniProt P35439); assay: Radioligand binding assay, [3H]MK-801 displacement
T2 construct: from tissue; host or cells: rat hippocampus membranes
Method: as §1, §2, §3

[4] = biological target: T3, human erythrocyte AChE (Homo sapiens, UniProt P22303); assay: biochemical; details: read-out: % of inhibition of AChE with 20 µM concentration of the compound; 20 µM compound; mean ± SEM, n = 3
T3 construct: commercial human erythrocyte AChE; purchased Sigma; host or cells: human erythrocytes
T3 sequence (P22303 32-617 isoform P22303-2 limits assumed): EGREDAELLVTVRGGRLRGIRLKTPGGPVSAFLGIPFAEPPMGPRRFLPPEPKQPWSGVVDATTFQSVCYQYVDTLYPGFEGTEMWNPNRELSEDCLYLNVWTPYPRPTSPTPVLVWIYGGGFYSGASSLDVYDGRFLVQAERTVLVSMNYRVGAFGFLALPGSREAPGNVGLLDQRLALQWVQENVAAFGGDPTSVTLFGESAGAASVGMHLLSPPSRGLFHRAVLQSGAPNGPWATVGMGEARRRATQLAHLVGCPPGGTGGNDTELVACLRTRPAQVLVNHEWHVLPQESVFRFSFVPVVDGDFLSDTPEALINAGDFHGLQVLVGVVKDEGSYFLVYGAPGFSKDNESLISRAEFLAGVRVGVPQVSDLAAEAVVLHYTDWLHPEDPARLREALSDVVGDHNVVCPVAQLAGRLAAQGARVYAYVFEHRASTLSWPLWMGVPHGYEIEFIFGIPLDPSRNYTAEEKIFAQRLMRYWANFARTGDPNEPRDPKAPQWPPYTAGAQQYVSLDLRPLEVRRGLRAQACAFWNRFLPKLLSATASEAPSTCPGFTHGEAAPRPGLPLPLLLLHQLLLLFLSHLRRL

[5] = biological target: T4, porcine liver CES (Sus scrofa, UniProt Q29550); assay: CES inhibition, 4-nitrophenyl acetate hydrolysis; format: biochemical; details: read-out: % of inhibition of CES with 20 µM concentration of the compound
T4 sequence (Q29550 19-566): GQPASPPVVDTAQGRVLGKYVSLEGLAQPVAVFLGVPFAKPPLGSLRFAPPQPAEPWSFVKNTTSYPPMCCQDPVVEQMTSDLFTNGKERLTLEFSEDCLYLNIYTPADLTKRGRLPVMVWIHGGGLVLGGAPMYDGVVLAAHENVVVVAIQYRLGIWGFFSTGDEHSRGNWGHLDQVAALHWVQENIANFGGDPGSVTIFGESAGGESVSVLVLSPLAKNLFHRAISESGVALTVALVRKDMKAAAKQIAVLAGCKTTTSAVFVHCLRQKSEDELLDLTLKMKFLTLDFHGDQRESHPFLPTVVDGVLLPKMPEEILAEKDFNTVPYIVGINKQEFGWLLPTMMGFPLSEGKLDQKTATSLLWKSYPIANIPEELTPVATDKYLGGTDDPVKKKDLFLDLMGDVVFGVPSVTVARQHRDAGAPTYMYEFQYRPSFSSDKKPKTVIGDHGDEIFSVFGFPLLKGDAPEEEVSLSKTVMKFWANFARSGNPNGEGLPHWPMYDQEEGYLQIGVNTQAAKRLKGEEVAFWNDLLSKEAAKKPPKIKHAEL
Method: (§4) Reagents blanks consisted of reaction mixtures without substrates. […] Final enzyme and substrate concentrations were 0.02 unit/mL and 1 mM, respectively. Assays were carried out with a blank containing all constituents except porcine CES to assess non-enzymatic hydrolysis. The measurements were performed on a FLUOstar OPTIMA multifunctional microplate reader (BMG LABTECH, Ortenberg, Germany). The compounds were dissolved in DMSO. The incubation mixture contained 2% (v/v) of the solvent. […] The sample of the appropriate enzyme was incubated with the test compound for 5 min, and then the residual enzymatic activity was determined. Each experiment was performed in triplicate. […] Each experiment was performed in triplicate. The IC50 values were calculated with Origin 6.1 software.

[6] = tested on: isolated rat liver mitochondria; assay: Ca2+-induced mitochondrial swelling (MPT pore opening); format: biochemical; details: 30 µM compound; 12.5 µM Ca2+; 10 mM glutamate, 2 mM malate, 10 mM succinate; percentage relative to the reference compound
Method: Experiments were performed using outbred male rats weighing 200–220 g. The animals were housed under standard vivarium conditions in a normal day/night cycle and had ad libitum access to water and food. The procedure of rat euthanasia using carbon dioxide (CO2) inhalation for mitochondria preparation is in compliance with the Guidelines for Animal Experiments, which were approved by the local bioethics committee of the IPAC RAS.
Rat liver mitochondria were isolated by conventional differential centrifugation. Membrane potential of rat liver mitochondria was measured using the potential-sensitive fluorescent probe Safranine A on a Victor 3 multilabel plate reader (Perkin Elmer, Waltham, MA, USA). The fluorescence was recorded at λex = 485 nm and λem = 590 nm. Mitochondrial swelling was measured by spectrophotometry in 96-well clear bottom plates on a Victor 3 microplate reader (Perkin Elmer, Waltham, MA, USA) at 620 nm; CaCl2 was added to induce mitochondrial swelling (MPT opening).

[7] = biological target: T5, equine serum BChE (Equus caballus, UniProt P81908); assay: biochemical; details: mean ± SEM, n = 3; for IC50: 5 min incubation
T5 construct: equine serum BChE; purchased Sigma; host or cells: equine serum
T5 sequence (P81908 whole entry): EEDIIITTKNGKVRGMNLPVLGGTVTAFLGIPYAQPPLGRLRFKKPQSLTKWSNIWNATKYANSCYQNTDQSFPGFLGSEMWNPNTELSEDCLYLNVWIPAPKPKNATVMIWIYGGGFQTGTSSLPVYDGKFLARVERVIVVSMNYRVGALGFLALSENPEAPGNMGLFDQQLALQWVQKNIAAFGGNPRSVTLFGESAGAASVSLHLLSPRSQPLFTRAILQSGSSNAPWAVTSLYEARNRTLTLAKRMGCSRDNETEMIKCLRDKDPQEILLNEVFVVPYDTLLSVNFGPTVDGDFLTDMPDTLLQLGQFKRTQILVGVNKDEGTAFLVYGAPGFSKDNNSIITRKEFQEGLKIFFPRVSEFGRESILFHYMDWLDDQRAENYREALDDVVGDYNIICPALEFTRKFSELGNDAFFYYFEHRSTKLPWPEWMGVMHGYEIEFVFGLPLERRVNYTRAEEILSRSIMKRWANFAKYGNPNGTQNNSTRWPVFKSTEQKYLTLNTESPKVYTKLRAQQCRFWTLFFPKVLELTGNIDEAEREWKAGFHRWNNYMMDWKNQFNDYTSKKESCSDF
Method: as §4

[8] = biological target: T6, PAS of EeAChE (Electrophorus electricus, UniProt O42275); format: binding; details: 20 µM compound; 7 µM EeAChE, 8 µM propidium iodide; mean ± SEM, n = 3
T6 construct: AChE from Electrophorus electricus (EeAChE, type VI-S, lyophilized powder); purchased Sigma-Aldrich type VI-S; host or cells: Electrophorus electricus tissue
T6 sequence (O42275 24-633): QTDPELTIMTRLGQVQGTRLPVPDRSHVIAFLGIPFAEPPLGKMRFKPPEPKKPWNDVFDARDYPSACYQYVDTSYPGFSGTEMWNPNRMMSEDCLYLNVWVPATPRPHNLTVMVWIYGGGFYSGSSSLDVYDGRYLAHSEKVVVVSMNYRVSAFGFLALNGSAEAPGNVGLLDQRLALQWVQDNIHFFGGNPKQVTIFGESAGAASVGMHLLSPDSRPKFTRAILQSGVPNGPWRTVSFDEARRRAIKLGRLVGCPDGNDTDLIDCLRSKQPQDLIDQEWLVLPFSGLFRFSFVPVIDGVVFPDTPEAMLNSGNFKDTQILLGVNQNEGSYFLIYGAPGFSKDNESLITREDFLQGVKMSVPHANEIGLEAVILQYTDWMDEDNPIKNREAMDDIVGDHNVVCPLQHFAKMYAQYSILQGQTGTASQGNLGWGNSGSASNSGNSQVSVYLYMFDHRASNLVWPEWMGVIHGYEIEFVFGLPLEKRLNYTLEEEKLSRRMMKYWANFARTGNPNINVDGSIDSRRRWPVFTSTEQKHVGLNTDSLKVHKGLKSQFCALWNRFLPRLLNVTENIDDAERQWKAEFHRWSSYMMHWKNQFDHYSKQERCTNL
Method: The compounds were evaluated as potential inhibitors of proaggregation activity of AChE by measuring the displacement of propidium iodide from the PAS of the enzyme [53] using a fluorescence method [28]. AChE from Electrophorus electricus (EeAChE, type VI-S, lyophilized powder, Sigma-Aldrich, St. Louis, MO, USA) was used for consistency with our previous studies [8, 13, 63, 74]. The fluorescence intensity of propidium iodide bound to AChE increases several-fold. A decrease in the fluorescence intensity in the presence of the test compounds is indicative of their ability to bind to the AChE PAS and, correspondingly, to inhibit β-amyloid aggregation.
EeAChE (7 µM) was incubated with 20 µM of the test compound in 1 mM Tris-HCl buffer, pH 8.0, at 25 °C for 15 min. Then a solution of propidium iodide was added (final concentration 8 µM), the mixture was incubated for 15 min, and the fluorescence spectrum was recorded (excitation at 530 nm and emission at 600 nm). […] The blank contained propidium iodide at the same concentration in 1 mM Tris-HCl buffer, pH 8.0 at 25 °C. The measurements were performed in triplicate on a FLUOstar OPTIMA multifunctional microplate reader.
The degree of displacement of propidium iodide from the PAS of AChE (% displacement) was calculated by the equation:% displacement = 100 − (IFAChE + Propidium + inhibitor/IFAChE + Propidium) × 100, where IFAChE + Propidium is the fluorescence intensity of propidium iodide bound to EeAChE in the absence of the test compound (taken as 100%), and IFAChE + Propidium + inhibitor is the fluorescence intensity of propidium iodide bound to EeAChE in the presence of the test compound.

CN1CCc2c(c3ccccc3n2CC(=O)NC23CC4CC(C)(CC(C)(C4)C2)C3)C1 [Compound 8a, 3,5-Dimethyladamantan-1-yl)-2-(2-methyl-3,4-dihydro-1H-pyrido[4,3-b]indol-5(2H)-yl)acetamide hydrochloride]
Rate of Tb+MAP Polymerization (dA355/dt) [1]: 237 ± 55% | Ki [2]: 113 ± 10.4 µM | Ki [3]: 63.5 ± 5.8 µM | inhibition at 20 µM [4]: 7.1 ± 0.5% | inhibition at 20 µM [5]: 5.2 ± 1.2% | Rate of Ca2+-Induced Mitochondrial Swelling (dA620/dt) [6]: 42 ± 21% | IC50 [7]: 9.66 ± 0.52 µM

Cc1ccc2c(c1)c1c(n2CC(=O)NC23CC4CC(C)(CC(C)(C4)C2)C3)CCN(C)C1.Cl [Compound 8b, 2-(2,8-Dimethyl-3,4-dihydro-1H-pyrido[4,3-b]indol-5(2H)-yl)-N-(3,5-dimethyladamantan-1-yl)acetamide hydrochloride]
Rate of Tb+MAP Polymerization (dA355/dt) [1]: 314 ± 46% | Ki [2]: 89.7 ± 8.7 µM | Ki [3]: 55.1 ± 5.1 µM | inhibition at 20 µM [4]: 17.7 ± 1.4% | inhibition at 20 µM [5]: 6.4 ± 0.5% | Rate of Ca2+-Induced Mitochondrial Swelling (dA620/dt) [6]: 87 ± 33% | % of Displacement of Propidium Iodide from the PAS of EeAChE [8]: 2.8 ± 0.2% | IC50 [7]: 33.7 ± 3.5 µM

CN1CCc2c(c3cc(F)ccc3n2CC(=O)NC23CC4CC(C)(CC(C)(C4)C2)C3)C1.Cl [Compound 8c, N-(3,5-Dimethyladamantan-1-yl)-2-(8-fluoro-2-methyl-3,4-dihydro-1H-pyrido[4,3-b]indol-5(2H)-yl)acetamide hydrochloride]
Increase of the rate of Tb+MAP polymerization, factor [1]: > 3.5 | Rate of Tb+MAP Polymerization (dA355/dt) [1]: 359 ± 25% | Ki [2]: 110 ± 10.8 µM | Ki [3]: 80.6 ± 8.5 µM | inhibition at 20 µM [4]: 17.3 ± 0.8% | inhibition at 20 µM [5]: 8.4 ± 0.9% | Rate of Ca2+-Induced Mitochondrial Swelling (dA620/dt) [6]: 63 ± 25% | IC50 [7]: 6 ± 0.06 µM

CN1CCc2c(c3cc(F)ccc3n2CC(=O)NC23CC4CC(CC(C4)C2)C3)C1.Cl [Compound 8f, N-(Adamantan-1-yl)-2-(8-fluoro-2-methyl-3,4-dihydro-1H-pyrido[4,3-b]indol-5(2H)-yl)acetamide hydrochloride]
Rate of Tb+MAP Polymerization (dA355/dt) [1]: 154 ± 14% | Ki [2]: 73.8 ± 7 µM | Ki [3]: 47.3 ± 4.7 µM | inhibition at 20 µM [4]: 22.1 ± 1.8% | inhibition at 20 µM [5]: 6.2 ± 0.6% | Rate of Ca2+-Induced Mitochondrial Swelling (dA620/dt) [6]: 61 ± 24% | IC50 [7]: 17.1 ± 1.3 µM

Cc1ccc2c(c1)c1c(n2CCc2ccc(C)nc2)CCN(C)C1 [dimebon, reference compound]
Rate of Tb+MAP Polymerization (dA355/dt) [1]: 162 ± 23% | Ki [2]: 77.2 ± 5.7 µM | Ki [3]: 50.4 ± 4.3 µM | Rate of Ca2+-Induced Mitochondrial Swelling (dA620/dt) [6]: 36 ± 11% | % of Displacement of Propidium Iodide from the PAS of EeAChE [8]: 4.1 ± 0.3%

CC12CC3CC(C)(C1)CC(N)(C3)C2 [memantine, reference compound]
Rate of Tb+MAP Polymerization (dA355/dt) [1]: 89 ± 7% | inhibition at 20 µM [4]: 1.3 ± 0.2% | inhibition at 20 µM [5]: 3 ± 0.4% | Rate of Ca2+-Induced Mitochondrial Swelling (dA620/dt) [6]: 70 ± 9% | inhibition at 20 µM ([7]; read-out: % of inhibition of BChE with 20 µM concentration of the compound, 20 µM compound): 13.7 ± 1.5%
